# Assay results published in ChEMBL document CHEMBL4818998, “Melatonin derivatives combat with inflammation-related cancer by targeting the Main Culprit STAT3” (Eur J Med Chem, 2021).
# Active and inactive are the calls of the source. The calls are words filed in the database; no cut-off is given here.
# Experiments:
# [1] = Tmax in Sprague-Dawley rat at 100 mg/kg, ig measured for 24 hrs by LC-MS analysis; assay type: ADME, organism-based; conditions: in vivo, po
# [2] = AUC (0 to t) in Sprague-Dawley rat at 100 mg/kg, ig measured for 24 hrs by LC-MS analysis; assay type: ADME, organism-based; design: time 24 hrs, dose 100 mg/kg; conditions: in vivo, po
# [3] = test system: MGC-803; experiment: Induction of apoptosis in human MGC-803 cells at 2.5 to 20 uM measured after 48 hrs by Annexin V-FITC/PI staining based flow cytometry; assay type: functional, cell-based; conditions: dose 2.5-20 µM
# [4] = target: Signal transducer and activator of transcription 3 (Homo sapiens) (UniProt P40763); experiment: Inhibition of STAT3 in human MGC-803 cells assessed as inhibition of nuclear translocation of STAT3 at 10 uM measured after 3 hrs by Hoechst/fluorochrome-conjugated antibody staining based confocal laser microscopy; assay type: cell-based
# Chain of Signal transducer and activator of transcription 3 (Homo sapiens) (P40763 whole entry): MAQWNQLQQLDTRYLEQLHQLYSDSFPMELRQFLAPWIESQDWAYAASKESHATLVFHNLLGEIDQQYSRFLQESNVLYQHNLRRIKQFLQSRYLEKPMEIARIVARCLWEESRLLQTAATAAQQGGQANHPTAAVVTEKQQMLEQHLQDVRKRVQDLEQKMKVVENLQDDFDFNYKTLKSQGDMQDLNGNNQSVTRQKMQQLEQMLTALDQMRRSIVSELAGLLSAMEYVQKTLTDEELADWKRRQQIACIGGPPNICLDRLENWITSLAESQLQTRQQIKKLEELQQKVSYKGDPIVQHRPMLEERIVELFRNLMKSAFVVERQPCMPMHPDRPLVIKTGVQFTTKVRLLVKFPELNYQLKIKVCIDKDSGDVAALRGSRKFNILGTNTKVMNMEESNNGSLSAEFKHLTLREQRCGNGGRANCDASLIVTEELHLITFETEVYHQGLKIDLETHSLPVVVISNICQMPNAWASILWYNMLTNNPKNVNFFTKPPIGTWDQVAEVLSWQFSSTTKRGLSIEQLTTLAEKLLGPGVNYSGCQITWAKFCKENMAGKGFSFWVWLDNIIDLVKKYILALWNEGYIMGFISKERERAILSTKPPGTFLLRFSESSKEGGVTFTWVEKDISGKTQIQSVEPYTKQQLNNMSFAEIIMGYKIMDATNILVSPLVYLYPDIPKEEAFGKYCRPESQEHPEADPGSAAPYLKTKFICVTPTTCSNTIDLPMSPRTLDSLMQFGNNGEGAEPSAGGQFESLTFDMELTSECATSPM
# [5] = test system: MGC-803; experiment: Induction of cell cycle arrest in human MGC-803 cells at 2.5 to 20 uM measured after 48 hrs by propidium iodide staining based flow cytometry analysis; assay type: functional; conditions: dose 2.5-20 µM
# [6] = test system: HCT-116; experiment: Induction of apoptosis in human HCT-116 cells assessed as late apoptotic cells at 10 uM measured after 48 hrs by Annexin V-FITC/PI staining based flow cytometry (reference value: 1.42%); assay type: functional
# [7] = test system: HCT-116; experiment: Induction of apoptosis in human HCT-116 cells assessed as early apoptotic cells at 10 uM measured after 48 hrs by Annexin V-FITC/PI staining based flow cytometry (reference value: 2.14%); assay type: functional
# [8] = target: Signal transducer and activator of transcription 3 (Homo sapiens) (UniProt P40763); experiment: Inhibition of STAT3 in human MGC-803 cells assessed as decrease in Bcl-2 expression at 4 to 16 uM measured after 48 hrs by western blot assay; assay type: cell-based; conditions: dose 4-16 µM
# [9] = test system: MGC-803; experiment: Antimetastatic activity against human MGC-803 cells assessed as inhibition of cell migration measured after 24 hrs by transwell assay; assay type: functional, cell-based; conditions: dose 2.5-15 µM
# [10] = test system: HCT-116; experiment: Induction of apoptosis in human HCT-116 cells assessed as increase in apoptotic cells with twinkling cell nuclei at 1.25 to 10 uM measured after 48 hrs by Hoechst 33342 staining based light blue fluorescence analysis; assay type: functional; conditions: dose 1.25-10 µM
# [11] = Cmax in Sprague-Dawley rat at 100 mg/kg, ig measured for 24 hrs by LC-MS analysis; assay type: ADME, organism-based; design: route intragastric, time 24 hrs, dose 100 mg/kg; conditions: in vivo, po
# [12] = target: Signal transducer and activator of transcription 3 (Homo sapiens) (UniProt P40763); experiment: Inhibition of STAT3 in human HCT-116 cells assessed as decrease in Bcl-2 expression at 2.5 to 10 uM measured after 48 hrs by western blot assay; assay type: cell-based; conditions: dose 2.5-10 µM
# [13] = test system: HCT-116; experiment: Induction of apoptosis in human HCT-116 cells assessed as downregulation of cytochrome C expression at 2.5 to 10 uM measured after 48 hrs by western blot assay; assay type: functional, cell-based; conditions: dose 2.5-10 µM
# [14] = test system: HCT-116; experiment: Antiproliferative activity against human HCT-116 cells assessed as inhibition of cell proliferation measured after 72 hrs by MTT assay; assay type: functional, cell-based; conditions: HCT-116, 72 h
# [15] = Ratio of AUC (0 to t) to observed AUC (0 to infinity) in Sprague-Dawley rat at 100 mg/kg, ig measured for 24 hrs by LC-MS analysis; assay type: ADME, organism-based; conditions: in vivo, po
# [16] = test system: HCT-116; experiment: Downregulation of STAT3 expression in human HCT-116 cells at 10 uM measured after 3 hrs by Hoechst/fluorochrome-conjugated antibody staining based confocal laser microscopy; assay type: functional, cell-based
# [17] = test system: HCT-116; experiment: Induction of apoptosis in human HCT-116 cells assessed as necrotic cells at 5 uM measured after 48 hrs by Annexin V-FITC/PI staining based flow cytometry (reference value: 1.5%); assay type: functional
# [18] = test system: HCT-116; experiment: Induction of apoptosis in human HCT-116 cells assessed as viable cells at 2.5 uM measured after 48 hrs by Annexin V-FITC/PI staining based flow cytometry assay (reference value: 94.9%); assay type: functional; conditions: read-out: Activity
# [19] = test system: HCT-116; experiment: Induction of apoptosis in human HCT-116 cells assessed as early apoptotic cells at 2.5 uM measured after 48 hrs by Annexin V-FITC/PI staining based flow cytometry assay (reference value: 2.14%); assay type: functional
# [20] = test system: HCT-116; experiment: Antiproliferative activity against human HCT-116 cells assessed as decrease in cell population at S-phase at 1.25 to 10 uM measured after 24 hrs by EdU incorporation based fluorescence microscopic analysis; assay type: functional; conditions: dose 1.25-10 µM
# [21] = target: Signal transducer and activator of transcription 3 (Homo sapiens) (UniProt P40763); experiment: Inhibition of STAT3 in human HCT-116 cells assessed as decrease in STAT3 phosphorylation at 2.5 to 10 uM measured after 48 hrs by western blot assay; assay type: cell-based; conditions: dose 2.5-10 µM
# [22] = test system: HCT-116; experiment: Induction of apoptosis in human HCT-116 cells assessed as […] of cleaved caspase-3 expression at 2.5 to 10 uM measured after 48 hrs by western blot assay; assay type: functional, cell-based; conditions: dose 2.5-10 µM
# [23] = Observed AUC (0 to infinity) in Sprague-Dawley rat at 100 mg/kg, ig measured for 24 hrs by LC-MS analysis; assay type: ADME, organism-based; design: route intragastric, time 24 hrs, dose 100 mg/kg; conditions: in vivo, po
# [24] = test system: HCT-116; experiment: Induction of apoptosis in human HCT-116 cells assessed as plasmatorrhexis at 2.5 to 15 uM measured after 48 hrs by Giemsa staining method; assay type: functional, cell-based; conditions: dose 2.5-15 µM
# [25] = target: Signal transducer and activator of transcription 3 (Homo sapiens) (UniProt P40763); experiment: Inhibition of STAT3 in human HCT-116 cells assessed as inhibition of nuclear translocation of STAT3 at 10 uM measured after 3 hrs by Hoechst/fluorochrome-conjugated antibody staining based confocal laser microscopy; assay type: cell-based
# [26] = test system: HCT-116; experiment: Induction of apoptosis in human HCT-116 cells assessed as viable cells at 10 uM measured after 48 hrs by Annexin V-FITC/PI staining based flow cytometry (reference value: 94.9%); assay type: functional; conditions: read-out: Activity
# [27] = test system: HCT-116; experiment: Antimetastatic activity against human HCT-116 cells assessed as inhibition of cell migration measured after 36 hrs by transwell assay; assay type: functional, cell-based; conditions: dose 2.5-15 µM
# [28] = test system: HCT-116; experiment: Induction of apoptosis in human HCT-116 cells assessed as necrotic cells at 2.5 uM measured after 48 hrs by Annexin V-FITC/PI staining based Flowcytometry assay (reference value: 1.5%); assay type: functional
# [29] = Observed apparent oral clearance in Sprague-Dawley rat at 100 mg/kg measured for 24 hrs by LC-MS analysis; assay type: ADME, organism-based; conditions: in vivo
# [30] = Toxicity in po dosed Kunming mouse; assay type: organism-based; conditions: in vivo
# [31] = Toxicity in Kunming mouse assessed as animal activity at 1000 mg/kg, ig measured for 14 days; assay type: organism-based; conditions: in vivo, po, 336 h, time 14 day
# [32] = Cytotoxicity against LPS-stimulated mouse RAW264.7 cells assessed as cell viability at 5 to 20 microM measured after 24 hrs; assay type: cell-based; conditions: LPS-stimulated RAW264.7 cells, dose 5-20 µM, read-out: Activity
# [33] = test system: HCT-116; experiment: Downregulation of STAT3 protein expression in human HCT-116 cells at 2.5 to 10 uM measured after 48 hrs by western blot assay; assay type: functional, cell-based; conditions: dose 2.5-10 µM
# [34] = test system: HCT-116; experiment: Induction of apoptosis in human HCT-116 cells assessed as early apoptotic cells at 20 uM measured after 48 hrs by Annexin V-FITC/PI staining based flow cytometry (reference value: 2.14%); assay type: functional
smiles,measurement,setting,value
Cc1c(Cl)cccc1Nc1ccccc1C(=O)NCCc1c[nH]c2ccccc12,Tmax,[1],1 h
same,AUC(0-t) at 24 h,[2],1670 ng·h/mL
same,Activity,[3],inactive
same,inhibition,[4],Active
same,Activity,[5],inactive
same,Activity,[6],6.12%
same,Activity,[7],33%
same,inhibition,[8],Active
same,Activity,[9],Dose-Dependent Effect
same,Activity,[10],Active
same,Cmax,[11],150 ng/mL
same,inhibition,[12],Active
same,Activity,[13],Active
same,IC50,[14],8.42 µM
same,Ratio AUC,[15],0.87
same,inhibition,[16],Active
same,Activity,[17],2.81%
same,viability at 2.5 µM,[18],91.3%
same,Activity,[19],3.48%
same,Activity,[20],Active
same,inhibition,[21],Active
same,Activity,[22],Active
same,AUC(0-inf),[23],1930 ng·h/mL
same,Activity,[24],Active
same,inhibition,[25],Active
same,viability at 10 µM,[26],58.5%
same,Activity,[27],Dose-Dependent Effect
same,Activity,[28],2.07%
same,CL/F,[29],51.75 (mg/kg)/(microg/ml)/hr
same,LD50,[30],> 1000 mg/kg
same,Activity,[31],Non-Toxic
same,viability at 24 h,[32],> 80%
same,inhibition,[33],Active
same,Activity,[34],42.5%
